# Measurements reported in US9233107B2, “Compositions and methods for the treatment of progressive multifocal leukoencephalopathy (PML)” (Biogen MA Inc., priority 2007, dated 2016).
# Where a name gives a salt, the structure may show the parent alone. Read-outs that look alike come from different tables or passages of the source.
# Assays:
# JCV = assay: Anti-JCV activity of structural analogs (Tables 4 and 5); type: cell-based, JC polyomavirus (JCV)
# in vitro = conditions: human
# Description: (§1) SV40 transformed glial cells were seeded in 10% FBS media. The cells were seeded at 2000 cells per well in 75 μl of media per well. On day 2, the media was removed and replaced by 35 μl of a 1× concentrated drug aliquot combined with a 100× diluted JCV Turbo aliquot in 35 μl of 2% FBS media (JCV Turbo is a hybrid Mad-1/SVEΔ virus constructed by insertion of the regulatory region of SV40 into the regulatory region of the Mad-1 strain of JCV (Mad-1/SVE), Vacante et al., Virology 1989, 170: 353-361). The cells were incubated for an hour, after which another 65 uL aliquot of 1× concentrated drug in 2% FBS was added. On day 5 the cells were stained with DAPI (for total cell number) and with a mouse monoclonal antibody against SV40 VP1, which cross reacts with the JCV VP1 protein. […] The information is tabulated as % inhibition (as measured by the number and percentage of JCV positive cells).
# (§2) JCV Infectivity Assay: SVG-A cells were seeded at 2,000 cells/well/0.075 ml of culture media in 96 flat-bottom well plate (Corning, N.Y.). The next day compounds were prepared in assay medium (2% heat-inactivated fetal bovine serum, 4 mM L-glutamine, 1×MEM). A master viral plate was prepared by mixing equal volumes of [2×] compound and [2×] diluted virus for the final 1× concentration of the compound and the virus. The plate containing cells was gently inverted and shaken to remove media. From the master plate, 0.035 ml compound/virus was added to designated wells. The cells were incubated with the compound/virus mixture for 60 minutes in a humidified 37° C. CO2 incubator. At that time final concentration of the drug in media was added to designated wells to bring the final volume up to 0.1 ml/well. The plates were incubated for an additional three days, the cells were then washed once with 1×PBS, and fixed in 2% paraformaldehyde/1×PBS for 30 minutes at room temperature. The fixative was removed and the cells were solubilized with 0.5% Triton X100 in PBS for an additional 30 minutes. Infection by Mad-1/SVEΔ virus was visualized by staining with PAB597, a monoclonal antibody against the major capsid protein VP1, the cells were incubated with 0.05 ml of PAB597 (2 μg/ml in 1×PBS) for 60 minutes at 37° C. Following a wash step with 1×PBS, primary antibody was detected with an Alexa-Fluor 488-labeled goat anti-mouse secondary antibody at 1:100 dilution in 1×PBS, cells were counterstained with DAPI at 1 μg/ml (0.05 ml/well) for 30 minutes at 37° C. Cells were washed with 1×PBS and 0.1 ml 1×PBS was added to cells. Field images of each well were acquired and analyzed using the Cellomics ArrayScan (Thermo Scientific Inc, Waltham, Mass.) using the Target Activation software. […] The cells are seeded at 4,000 cells/well/0.075 ml of culture media in 96 flat-bottom well plate (Corning). The culture media is used for the infection. The length of the infection is six to ten days (instead of the three days for SVG-A cells).
# (§3) The primary assay employed an SVG-A cell line and JCV Mad1/SVEΔ viral strain.
# SVG-A cells = assay: Total cell number (DAPI+ events) / cytotoxicity in the JCV infectivity assay; conditions: for inhibition at 10 µM: Homo sapiens, SVG-A, read-out: % Inhibition total Cell Number @10 uM; for % Inhibition total Cell Number @10 uM: cytotoxicity, DAPI count
# Description: as §1, §2, §3
# JCV strain Mad1/SVEΔ = assay: microbe, parasite or virus in culture; type: cell-based, JC polyomavirus (JCV); conditions: for % Inhibition (total #JCV+) @10 uM: SV40 transformed glial cells, Mad-1/SVEΔ JCV; for % Inhibition (% JCV+) @10 uM: infection rate, JCV+ cells normalised to total cells
# Description: as §1, §2
# Calculations: The rate of JCV infection was calculated by normalizing the number of JCV infected cells by the total number of nucleated cells as % JCV^+ cells=((total # VP1^+ cells)/(total # DAPI^+ cells))*100%. The % of viral inhibition by a compound was calculated using a JCV infection rate instead of using total number of JCV infected cells (e.g., VP1^+ cells).
# [1] = published PK data; cited from earlier work
# [2] = Table 4, mefloquine functional fingerprint in silico screen compounds
# [3] = JC polyomavirus, Glial cell, read-out: % Inhibition (total #JCV+) @10 uM
# [4] = JC polyomavirus, SVG-A, read-out: % Inhibition (% JCV+) @10 uM
compound,measurement,setting,value
"CC[C@@H](CO)Nc1nc(NCc2ccccc2)c2ncn(C(C)C)c2n1 (single isomer, unassigned) [ROSCOVITINE, (S)-ISOMER]",anti-JCV activity,JCV; [2],Yes
Nc1nccc2c1ncn2[C@@H]1O[C@H](CO)[C@@H](O)[C@H]1O [3-DEAZAADENOSINE],anti-JCV activity,JCV; [2],Yes
"CC(=O)O[C@H]1CC[C@H]2[C@@H]3CCC4=C[C@@H](O)CC[C@@H]4[C@H]3CC[C@]12C [4-ESTREN-3-BETA, 17-BETA-DIOL 17-ACETATE]",anti-JCV activity,"JCV; Table 5, fusidic acid analogs",Yes
"CC(=O)OC(C)C1CCC2C3CCC4=CC(O)CCC4(C)C3CCC12C (stereo not drawn) [4-PREGNEN-3-BETA, 20-BETA-DIOL 20-ACETATE]",anti-JCV activity,"JCV; Table 5, fusidic acid analogs",Yes
"CC(=O)OC(C)C1CCC2C3CC(O)C4CC(O)CCC4(C)C3CCC12C (stereo not drawn) [5-BETA-PREGNAN-3-ALPHA, 6-ALPHA, 20-ALPHA-TRIOL 20-ACETATE]",anti-JCV activity,"JCV; Table 5, fusidic acid analogs",No
"CC(=O)OC(C)C1CCC2C3CC(O)C4CC(O)CCC4(C)C3CCC12C (stereo not drawn) [5-BETA-PREGNAN-3-ALPHA, 6-ALPHA, 20-BETA-TRIOL 20-ACETATE]",anti-JCV activity,"JCV; Table 5, fusidic acid analogs",Yes
Nc1ncnc2c1nc(Cl)n2[C@@H]1O[C@H](CO)[C@@H](O)[C@H]1O [8-CHLOROADENOSINE],anti-JCV activity,JCV; [2],Yes
"CC(=O)OC1CC2CC(O)CCC2(C)C2CC(OC(C)=O)C3(C)C(C(C)CC(=O)O)CCC3C12 (stereo not drawn) [23-NOR-5-BETA-CHOLANIC ACID-3-ALPHA, 7-ALPHA, 12-ALPHA-TRIOL 7,12-DIACETATE]",anti-JCV activity,"JCV; Table 5, fusidic acid analogs",No
Nc1ncnc2c1ncn2[C@@H]1O[C@H](CO)[C@@H](O)[C@H]1O [ADENOSINE],anti-JCV activity,JCV; [2],No
COc1ccc([C@@H]2Sc3ccccc3N(CCN(C)C)C(=O)[C@@H]2OC(C)=O)cc1 [DILTIAZEM HYDROCHLORIDE],CC50 at 3 days,in vitro,> 40 µM
same,inhibition at 10 µM,SVG-A cells,-4%
same,inhibition at 10 µM,JCV strain Mad1/SVEΔ; [3],20%
same,IC50,"JCV strain Mad1/SVEΔ; JC polyomavirus, SVG-A",8.5 µM
same,inhibition at 10 µM,JCV strain Mad1/SVEΔ; [4],24%
Cc1c(Nc2ncccc2C(=O)O)cccc1C(F)(F)F [FLUNIXIN MEGLUMINE],CC50,in vitro,47.7 µM
same,inhibition at 10 µM,SVG-A cells,-4%
same,inhibition at 10 µM,JCV strain Mad1/SVEΔ; [3],30%
same,IC50,"JCV strain Mad1/SVEΔ; JC polyomavirus, SVG-A",16.6 µM
same,inhibition at 10 µM,JCV strain Mad1/SVEΔ; [4],33%
CC(=O)O[C@H]1C[C@@]2(C)[C@@H](C[C@@H](O)[C@H]3[C@@]4(C)CC[C@@H](O)[C@@H](C)[C@@H]4CC[C@@]32C)/C1=C(\CCC=C(C)C)C(=O)O [FUSIDIC ACID],inhibition at 10 µM,SVG-A cells,-2%
same,plasma Cmax,[1],10000 to 90000 ng/mL
same,inhibition at 10 µM,JCV strain Mad1/SVEΔ; [3],39%
same,IC50,"JCV strain Mad1/SVEΔ; JC polyomavirus, SVG-A",8.6 µM
same,inhibition at 10 µM,JCV strain Mad1/SVEΔ; [4],40%
Nc1nc2c(ncn2[C@@H]2O[C@H](CO)[C@@H](O)[C@H]2O)c(=O)[nH]1 [GUANOSINE],anti-JCV activity,JCV; [2],No
Cc1nccc2c1[nH]c1ccccc12 [HARMANE],CC50,in vitro,> 40 µM
same,inhibition at 10 µM,SVG-A cells,4%
same,inhibition at 10 µM,JCV strain Mad1/SVEΔ; [3],24%
same,IC50,"JCV strain Mad1/SVEΔ; JC polyomavirus, SVG-A",14.4 µM
same,inhibition at 10 µM,JCV strain Mad1/SVEΔ; [4],22%
CC1=C(/C=C/C(C)=C/C=C/C(C)=C\C(=O)O)C(C)(C)CCC1 [ISOTRETINOIN],inhibition at 10 µM,SVG-A cells,15%
same,plasma Cmax,[1],1100 ng/mL
same,inhibition at 10 µM,JCV strain Mad1/SVEΔ; [3],39%
same,IC50,"JCV strain Mad1/SVEΔ; JC polyomavirus, SVG-A",4.4 µM
same,inhibition at 10 µM,JCV strain Mad1/SVEΔ; [4],28%
COc1cc(C)c2c(=O)c(-c3ccccc3)coc2c1 [METHOXYVONE],CC50,in vitro,> 40 µM
same,inhibition at 10 µM,SVG-A cells,15%
same,inhibition at 10 µM,JCV strain Mad1/SVEΔ; [3],38%
same,IC50,"JCV strain Mad1/SVEΔ; JC polyomavirus, SVG-A",17.2 µM
same,inhibition at 10 µM,JCV strain Mad1/SVEΔ; [4],27%
Clc1ccc(COC(Cn2ccnc2)c2ccc(Cl)cc2Cl)c(Cl)c1 (centres unmarked) [MICONAZOLE NITRATE],inhibition at 10 µM,SVG-A cells,7%
same,CC50,"SVG-A cells; read-out: TC50, inhibition of total cell numbers by 50%",22.9 µM
same,plasma Cmax,[1],10 ng/mL
same,inhibition at 10 µM,JCV strain Mad1/SVEΔ; [3],46%
same,inhibition at 10 µM,JCV strain Mad1/SVEΔ; [4],42%
Nc1nc(OCC2CCCCC2)c2[nH]cnc2n1 [O6-Cyclohexylmethylguanine],anti-JCV activity,JCV; [2],Yes
CCC(=O)Nc1ccc(Cl)c(Cl)c1 [PROPANIL],CC50 at 3 days,in vitro,> 40 µM
same,inhibition at 10 µM,SVG-A cells,-12%
same,inhibition at 10 µM,JCV strain Mad1/SVEΔ; [3],12%
same,IC50,"JCV strain Mad1/SVEΔ; JC polyomavirus, SVG-A",7.8 µM
same,inhibition at 10 µM,JCV strain Mad1/SVEΔ; [4],21%
Cc1c(Cl)cccc1Nc1ccccc1C(=O)O [TOLFENAMIC ACID],inhibition at 10 µM,SVG-A cells,18%
same,inhibition at 10 µM,JCV strain Mad1/SVEΔ; [3],61%
same,inhibition at 10 µM,JCV strain Mad1/SVEΔ; [4],53%
C[C@H]1CC[C@]2(NC1)O[C@H]1C[C@H]3[C@@H]4CC[C@H]5C[C@@H](O[C@@H]6O[C@H](CO)[C@H](O[C@@H]7O[C@H](CO)[C@@H](O)[C@H](O[C@@H]8OC[C@@H](O)[C@H](O)[C@H]8O)[C@H]7O[C@@H]7O[C@H](CO)[C@@H](O)[C@H](O)[C@H]7O)[C@H](O)[C@H]6O)CC[C@]5(C)[C@H]4CC[C@]3(C)[C@H]1[C@@H]2C [TOMATINE],inhibition at 10 µM,SVG-A cells,12%
same,inhibition at 10 µM,JCV strain Mad1/SVEΔ; [3],40%
same,inhibition at 10 µM,JCV strain Mad1/SVEΔ; [4],29%
O=c1c2ccccc2oc2ccccc12 [XANTHONE],inhibition at 10 µM,SVG-A cells,1%
same,inhibition at 10 µM,JCV strain Mad1/SVEΔ; [3],39%
same,IC50,"JCV strain Mad1/SVEΔ; JC polyomavirus, SVG-A",16.8 µM
same,inhibition at 10 µM,JCV strain Mad1/SVEΔ; [4],39%
Nc1ccn(C[C@@H](CO)OCP(=O)(O)O)c(=O)n1 [cidofovir],"inhibition of total number of cells in culture, in words",SVG-A cells,inhibited the total number of cells in culture to the same degree
same,"percent inhibition of infection rate (% JCV+ cells), in words","JCV strain Mad1/SVEΔ; FIG. 3D, SVG-A cells",not significant
DEHYDROABIETAMIDE,CC50,SVG-A cells,> 40 µM
same,% Inhibition total Cell Number @10 uM,SVG-A cells,11%
same,% Inhibition (total #JCV+) @10 uM,JCV strain Mad1/SVEΔ,40%
same,% Inhibition (% JCV+) @10 uM,JCV strain Mad1/SVEΔ,33%
same,IC50,"JCV strain Mad1/SVEΔ; anti-JCV, inhibition of % JCV infected cells by 50%, full dose response, read-out: IC50",13 µM
GINKGOLIC ACID,% Inhibition total Cell Number @10 uM,SVG-A cells,−8%
same,% Inhibition (total #JCV+) @10 uM,JCV strain Mad1/SVEΔ,33%
same,% Inhibition (% JCV+) @10 uM,JCV strain Mad1/SVEΔ,39%
POLYMYXIN B SULFATE,% Inhibition total Cell Number @10 uM,SVG-A cells,−8%
same,% Inhibition (total #JCV+) @10 uM,JCV strain Mad1/SVEΔ,36%
same,% Inhibition (% JCV+) @10 uM,JCV strain Mad1/SVEΔ,41%
